Measured values from patent US9751853B2, “Solid forms of 3-(5-amino-2-methyl-4-oxo-4H-quinazolin-3-yl)-piperidine-2,6-dione, and their pharmaceutical compositions and uses” (Celgene Corporation, priority 2011, dated 2017).
Entries after “also recorded” stand apart in the source; their conditions may differ.

Columns and labels:
[1] = Dynamic Vapor Sorption (moisture sorption); type: physicochemical
Method: Dynamic Vapor Sorption (DVS): Hygroscopicity was determined on a Surface Measurement Systems DVS. Typically, a sample of about 2-10 mg was loaded into the DVS instrument sample pan. The sample was analyzed on a DVS automated sorption analyzer at room temperature. The relative humidity was increased from 0 to 95% RH at 10% RH step, then at 95% RH. The relative humidity was then decreased in a similar manner to accomplish a full adsorption/desorption cycle.

[2] = Stability upon compression; conditions: 2000-psi pressure for about 1 minute
[3] = Grinding studies, solid form by XRPD; type: physicochemical
Method: Grinding Studies: Grinding experiments were performed using a Wig-L-Bug shaker. About 50 mg of Compound A hydrochloride was added to a polystyrene tube (1″×½″) with a Plexi bead (⅜″). The vial was capped and placed on the shaker for about 50 s. For wet grinding, drops of water were added to the vial and a wet paste was formed prior to placing on the shaker.
(§1) X-ray Powder Diffraction (XRPD): XRPD analysis was conducted on a Thermo ARL X'TRA™ X-ray powder diffractometer using Cu Kα radiation at 1.54 Å. The instrument was equipped with a fine focus X-ray tube. The voltage and amperage of X-ray generator were set at 45 kV and 40 mA, respectively. The divergence slices were set at 4 mm and 2 mm and the measuring slices were set at 0.5 mm and 0.2 mm. Diffracted radiation was detected by a peltier-cooled Si(Li) solid-state detector. A theta-two theta continuous scan at 2.40°/min (0.5 sec/0.02° step) from 1.5°2θ to 40°2θ was used. A sintered alumina standard was used to check the peak position. In general, positions of XRPD peaks are expected to individually vary on a measurement-by-measurement basis by about +0.2°2θ. In general, as understood in the art, two XRPD patterns match one another if the characteristic peaks of the first pattern are located at approximately the same positions as the characteristic peaks of the second pattern. As understood in the art, determining whether two XRPD patterns match or whether individual peaks in two XRPD patterns match may require consideration of individual variables and parameters such as, but not limited to, preferred orientation, phase impurities, degree of crystallinity, particle size, variation in diffractometer instrument setup, variation in XRPD data collection parameters, and/or variation in XRPD data processing, among others. The determination of whether two patterns match may be performed by eye and/or by computer analysis.

[4] = Humidity studies, solid form by XRPD; type: physicochemical
Method: as §1, with “Humidity Studies: […] The vials were placed in 40° C./75% RH humidity chamber with one vial capped and one vial open. The solids were tested by XRPD after four weeks. […] X-ray Powder” for “X-ray Powder”

[5] = Cooling recrystallization, solid form by XRPD; type: physicochemical; conditions: no antisolvent
Method: Cooling Recrystallization: The selected solvents (THF/water, MeCN/water, MeOH/0.1N HCl, and EtOH/0.1N HCl) were saturated with Compound A hydrochloride at about 50-70° C. Once the solids were completely dissolved, the solution was rapidly cooled by placing into a refrigerator (about 0-5° C.). Solids were isolated after 1 to 3 days.
as §1

Cc1nc2cccc(N)c2c(=O)n1C1CCC(=O)NC1=O.Cl (centres unmarked) [Form A1, 3-(5-amino-2-methyl-4-oxo-4H-quinazolin-3-yl)-piperidine-2,6-dione hydrochloride]
hygroscopicity ([1]; DVS 0 to 95% RH): non-hygroscopic
XRPD after full adsorption/desorption cycle ([1]; after DVS cycle): unchanged
mass change relative to the dry mass ([1]; relative humidity increased from 0 to 95%): 0.15%
stability upon compression [2]: stable
XRPD Result after grinding ([3]; Dry grinding): unchanged
XRPD Result after grinding ([3]; Wet grinding (paste)): unchanged
Solid form after humidity exposure ([4]; 40° C./75% RH environment for four weeks): not changed
XRPD Result after humidity exposure ([4]; 40° C./75% RH for 4 weeks, closed vial): Form A1
XRPD Result after humidity exposure ([4]; 40° C./75% RH for 4 weeks, open vial): Form A1
XRPD Result after humidity exposure ([4]; 95% RH at room temperature for 4 days, hydrochloride): not changed; also recorded: Form A1
XRPD Result after recrystallization ([5]; EtOH/0.1N HCl): Form A1
XRPD Result after recrystallization ([5]; MeCN/H2O, hydrochloride): Form A1 + Form A
XRPD Result after recrystallization ([5]; MeOH/0.1N HCl): Form A1
XRPD Result after recrystallization ([5]; THF/H2O, hydrochloride): Complete salt dissociation; also recorded: Form A
